Data on one compound can be found in ChEMBL document CHEMBL1147058, “An antibiotic produced by an insect-pathogenic bacterium suppresses host defenses through phenoloxidase inhibition” (Proc Natl Acad Sci U S A, 2007).

The test system of data set [1] is Photorhabdus luminescens. Briefly: Induction of virulence of stlA deficient Photorhabdus luminescens BMM901 assessed as increase in proliferation of Photorhabdus luminescens BMM901 in Manduca sexta in presence of cinnamic acid. In kind it is functional.
Data set [2] is described as follows: Drug level in Photorhabdus luminescens TT01 infected Manduca sexta hemolymph after 24 hrs by TLC plate method. As to conditions: read-out: Drug uptake. In kind it is ADME, tissue-based.
Data set [3] has as its target T1, Prophenoloxidase (Manduca sexta) (UniProt Q0VJU6).
T1 sequence (whole entry): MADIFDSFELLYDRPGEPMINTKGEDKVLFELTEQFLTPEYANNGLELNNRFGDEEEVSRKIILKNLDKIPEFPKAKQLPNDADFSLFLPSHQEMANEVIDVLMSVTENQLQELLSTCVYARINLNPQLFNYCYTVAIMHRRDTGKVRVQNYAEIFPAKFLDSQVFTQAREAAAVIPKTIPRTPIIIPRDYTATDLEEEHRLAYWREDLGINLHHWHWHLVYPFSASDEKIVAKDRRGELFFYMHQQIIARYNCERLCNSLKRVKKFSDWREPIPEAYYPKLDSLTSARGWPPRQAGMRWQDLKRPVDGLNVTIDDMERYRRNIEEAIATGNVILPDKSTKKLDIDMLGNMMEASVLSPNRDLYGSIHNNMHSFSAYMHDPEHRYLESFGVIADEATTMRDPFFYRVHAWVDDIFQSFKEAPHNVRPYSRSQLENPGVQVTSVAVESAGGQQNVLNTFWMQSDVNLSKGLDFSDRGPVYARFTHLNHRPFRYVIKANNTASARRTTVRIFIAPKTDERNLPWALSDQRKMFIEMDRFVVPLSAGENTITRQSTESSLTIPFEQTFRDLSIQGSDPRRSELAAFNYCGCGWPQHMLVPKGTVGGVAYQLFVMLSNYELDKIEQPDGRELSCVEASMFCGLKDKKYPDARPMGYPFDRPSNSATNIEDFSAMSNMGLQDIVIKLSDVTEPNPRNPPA
Briefly: Inhibition of Manduca sexta phenoloxidase at 60 uM.

The test system of data set [4] is Photorhabdus luminescens. The experiment in a line: Induction of virulence of stlA deficient Photorhabdus luminescens BMM901 assessed as decrease in survival of Photorhabdus luminescens BMM901 infected Manduca sexta in presence of cinnamic acid. In kind it is functional.
Data set [5] has as its system Photorhabdus luminescens. Briefly: Induction of virulence of Photorhabdus luminescens TT01 assessed as increase in proliferation of Photorhabdus luminescens TT01 in Manduca sexta in presence of cinnamic acid. The format is functional.
For a further data set, the system named is Manduca sexta. Briefly: Inhibition of immune system assessed as suppression of melanotic nodule formation in Photorhabdus luminescens TT01 infected Manduca sexta. In kind it is functional, organism-based.
Data set [6] deals with Photorhabdus luminescens. The experiment in a line: Induction of virulence of Photorhabdus luminescens TT01 assessed as decrease in survival of Photorhabdus luminescens TT01 infected Manduca sexta. In kind it is functional.
The subject of data set [7] is Photorhabdus luminescens. The experiment in a line: Induction of virulence of Photorhabdus luminescens TT01 assessed as increase in proliferation of Photorhabdus luminescens TT01 in Manduca sexta. In kind it is functional.
Data set [8] deals with Photorhabdus luminescens. The experiment in a line: Induction of virulence of Photorhabdus luminescens TT01 assessed as decrease in survival of Photorhabdus luminescens TT01 infected Manduca sexta in presence of cinnamic acid. In kind it is functional.

Active and inactive are the calls of the source. The rule behind the calls is not given here.

For the compound `CC(C)c1c(O)cc(/C=C/c2ccccc2)cc1O` [TAPINAROF], the result with Photorhabdus luminescens [1], in the data set on Photorhabdus luminescens [4], in the data set on Photorhabdus luminescens [5], in the data set on Manduca sexta, in the data set with Photorhabdus luminescens [6] and in the data set on Photorhabdus luminescens [7] was Active. In the data set with Photorhabdus luminescens [8], the outcome was Active. Moreover, in [2], the concentration at 24 h was 275 µg/mL. Also, the Activity entry in data set [3] was “Dose-dependent effect”.
